Holding throughout (assay): growth of human tumour cells (NCI), 48 h
Experiment [1] relates to NCI-H226.
Experiment [2] deals with TK-10.
In experiment [3] the test system is SR.
For experiment [4], the system named is OVCAR-8.
The test system of experiment [5] is MDA-MB-231.
Experiment [6] concerns EKVX.
For experiment [7], the system named is COLO 205.
Experiment [8] concerns MDA-MB-435.
Experiment [9] relates to SF-295.
Experiment [10] deals with SK-MEL-28.
Experiment [11] concerns SF-268.
Experiment [12] concerns M14.
Experiment [13] has as its system SNB-19.
Experiment [14] has as its system MOLT-4.
In experiment [15] the test system is OVCAR-3.
For experiment [16], the system named is RPMI-8226.
Experiment [17] has as its system SK-MEL-5.
For experiment [18], the system named is HL-60.
The subject of experiment [19] is KM12.
In experiment [20] the test system is SK-MEL-2.

SMILES strings stand for the structures.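 Briefly, cells in 96-well plates were exposed to five compound concentrations for 48 h, and endpoints were estimated by linear interpolation. At the GI50, growth is halved.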 The source made the active and inactive calls. Cut-off read from the data, not from the text of the source: active = GI50 up to about 1.1 µM and inactive = higher. Where only a bound is given, the exact number is not on record here.

`Cc1cccc2c1C(=O)C1(Cc3ccccc3C1=O)C2` (stereo unspecified): the GI50 in experiment [1], in [2], in experiment [3], in experiment [4], in experiment [5] and in experiment [6] was > 100 µM (inactive) throughout. Further, the GI50 in [7], in experiment [8], in experiment [9], in [10], in [11] and in experiment [12] was > 100 µM (inactive) throughout. In addition, the GI50 is > 100 µM (inactive) in experiment [13]; 91.2 µM (inactive) in experiment [14]; > 100 µM (inactive) in experiment [15]; 57.9 µM (inactive) in [16]; > 100 µM (inactive) in experiment [17]; > 100 µM (inactive) in experiment [18].

For `COc1cc(/C=C/C=C2\CC(C)C/C(=C\C=C\c3ccc(O)c(OC)c3)C2=O)ccc1O` (stereo unspecified), the GI50 was 14.8 µM (inactive) in experiment [1]; 3.05 µM (inactive) in experiment [2]; 1.69 µM (inactive) in [3]; 11.5 µM (inactive) in experiment [4]; 17 µM (inactive) in experiment [5]; 10.3 µM (inactive) in [6]. Further, the GI50 in experiment [7] was 16.7 µM (inactive); in experiment [19], 31.7 µM (inactive); in [8] it was 8.32 µM (inactive); in experiment [10], 6.92 µM (inactive); in experiment [11], 10.3 µM (inactive); in experiment [12], 15.4 µM (inactive). Also, the GI50 in experiment [13] is 23 µM (inactive); in experiment [14], 0.964 µM (active); in experiment [20], 17.1 µM (inactive); in experiment [15], 10.8 µM (inactive); in experiment [16], 7.13 µM (inactive); in experiment [17], 10.5 µM (inactive). The GI50 in [18] is 7.35 µM (inactive).

In the case of `CC(C)(SCc1ccccc1)C(N)C(=O)O` (stereo unspecified), the GI50 in [1], in experiment [2], in experiment [3], in [4], in experiment [5] and in [6] was > 100 µM (inactive) each time. The GI50 in [19], in [8], in [9], in experiment [10], in experiment [11] and in experiment [12] was > 100 µM (inactive) in each case. The GI50 in experiment [13], in experiment [14], in experiment [20], in [15], in experiment [16] and in [17] was > 100 µM (inactive) each time. Also, the GI50 in experiment [18] was > 100 µM (inactive).

For `O=C(O)c1c(O)c2cc(Br)ccc2oc1=O`, the GI50 in experiment [1], in experiment [2], in experiment [3], in experiment [4], in [5] and in [6] was > 100 µM (inactive) each time. Also, the GI50 in [7], in experiment [8], in experiment [9], in experiment [10], in experiment [11] and in experiment [12] was > 100 µM (inactive) in each case. The GI50 in [13], in experiment [14], in experiment [20], in [15], in [16] and in [17] was > 100 µM (inactive) in each case. Besides, the GI50 in experiment [18] was > 100 µM (inactive).

For `COC(=O)C(=O)C(C(=O)C(=O)Nc1nc2ccc(C)cc2s1)c1nc2ccc([N+](=O)[O-])cc2nc1O` (stereo unspecified), the GI50 in experiment [1] was > 100 µM (inactive); in experiment [2] it was > 100 µM (inactive); in experiment [3], > 100 µM (inactive); in experiment [4], > 100 µM (inactive); in experiment [5], > 100 µM (inactive); in experiment [6], 68.4 µM (inactive). Besides, the GI50 in experiment [19], in experiment [8], in experiment [9], in experiment [10], in [11] and in [12] was > 100 µM (inactive) throughout. For the same compound, the GI50 is 72.6 µM (inactive) in [13]; > 100 µM (inactive) in experiment [20]; > 100 µM (inactive) in experiment [15]; > 100 µM (inactive) in [16]; > 100 µM (inactive) in [17]; > 100 µM (inactive) in experiment [18].

As to `CC(=O)OC1CCC2C3CCc4c(C)ccc(OS(=O)(=O)c5ccccc5)c4C3CCC12C` (stereo unspecified), the GI50 in experiment [1] is 14.8 µM (inactive); in experiment [2], 52.1 µM (inactive); in experiment [3], 6.82 µM (inactive); in experiment [5], 19.3 µM (inactive); in experiment [6], 46.9 µM (inactive); in experiment [7], 18.6 µM (inactive). Moreover, the GI50 was 41.7 µM (inactive) in experiment [8]; 25.5 µM (inactive) in experiment [9]; > 100 µM (inactive) in experiment [10]; > 100 µM (inactive) in experiment [11]; 47.1 µM (inactive) in [13]; 6.32 µM (inactive) in experiment [14]. For the same compound, the GI50 in [20] was 30.8 µM (inactive); in experiment [15], 7.33 µM (inactive); in [16] it was 21.7 µM (inactive); in experiment [17] it was 3.74 µM (inactive); in experiment [18], 3.84 µM (inactive).

Regarding `O=c1[nH]nc(-c2ccccc2)n1/N=C/c1cccnc1`, the GI50 is 57.9 µM (inactive) in experiment [1]; > 100 µM (inactive) in [2]; 52.7 µM (inactive) in [3]; > 100 µM (inactive) in experiment [4]; 48.8 µM (inactive) in [5]; 71.1 µM (inactive) in experiment [6]. The GI50 is 23.4 µM (inactive) in experiment [19]; 64.7 µM (inactive) in experiment [8]; > 100 µM (inactive) in [9]; > 100 µM (inactive) in [10]; > 100 µM (inactive) in experiment [11]; > 100 µM (inactive) in experiment [12]. Moreover, the GI50 in [13] was > 100 µM (inactive); in experiment [14], 64 µM (inactive); in experiment [15], > 100 µM (inactive); in [16], 74 µM (inactive); in [17] it was 57 µM (inactive); in experiment [18], 50.2 µM (inactive).

Consider `COC(=O)C1(O)c2ccccc2N=C2C(=O)c3ccccc3N21` (stereo unspecified) [METHYLISATOID], for which the GI50 in experiment [1] was > 100 µM (inactive); in experiment [2], > 100 µM (inactive); in experiment [3], > 100 µM (inactive); in [4] it was > 100 µM (inactive); in experiment [5], 41.6 µM (inactive); in experiment [6], > 100 µM (inactive). Besides, the GI50 in experiment [7] is > 100 µM (inactive); in [19] it was > 100 µM (inactive); in [8], 12.2 µM (inactive); in experiment [9] it was > 100 µM (inactive); in experiment [10], > 100 µM (inactive); in [11], > 100 µM (inactive). Besides, the GI50 is > 100 µM (inactive) in [14]; > 100 µM (inactive) in experiment [20]; 45.3 µM (inactive) in [15]; > 100 µM (inactive) in experiment [16]; 49.8 µM (inactive) in experiment [17]; > 100 µM (inactive) in experiment [18].
